Values after ≈ are worked out from the molar mass of the structure shown. Active and inactive are the calls of the source. The calls are words filed in the database; no cut-off is given here.
Key:
Pichia kudriavzevii = test: Antifungal activity against Candida krusei ATCC 6258 measured after 48 hrs by CLSI M27-A3 protocol based method; type: functional; settings: ATCC 6258, 48 h
Candida albicans [1] = test: Antifungal activity against fluconazole/ITC-resistant Candida albicans ATCC MYA-1003 measured after 48 hrs by CLSI M27-A3 protocol based method; type: functional; settings: ATCC MYA-1003, 48 h
Aspergillus flavus = test: Antifungal activity against Aspergillus flavus ATCC MYA-3631 measured after 48 hrs by CLSI M38-A2 protocol based method; type: functional; settings: ATCC MYA-3631, 48 h
Staphylococcus aureus = test: Antibacterial activity against methicillin-resistant Staphylococcus aureus; type: functional, organism-based
Candida albicans [2] = test: Antifungal activity against fluconazole/ITC-susceptible Candida albicans ATCC MYA-2876 measured after 48 hrs by CLSI M27-A3 protocol based method; type: functional; settings: ATCC MYA-2876, 48 h
Listeria monocytogenes = test: Antibacterial activity against Listeria monocytogenes; type: functional, organism-based
Candida albicans [3] = test: Antifungal activity against fluconazole/ITC-resistant Candida albicans ATCC 10231 measured after 48 hrs by CLSI M27-A3 protocol based method; type: functional; settings: ATCC 10231, 48 h
Candida parapsilosis = test: Antifungal activity against Candida parapsilosis ATCC 22019 measured after 48 hrs by CLSI M27-A3 protocol based method; type: functional; settings: Lodderomyces parapsilosis, ATCC 22019, 48 h
Candida albicans [4] = test: Antifungal activity against fluconazole/ITC-resistant Candida albicans ATCC MYA-1237 measured after 48 hrs by CLSI M27-A3 protocol based method; type: functional; settings: ATCC MYA-1237, 48 h
Candida albicans [5] = test: Antifungal activity against fluconazole/ITC-susceptible Candida albicans ATCC MYA-2310 measured after 48 hrs by CLSI M27-A3 protocol based method; type: functional; settings: ATCC MYA-2310, 48 h
Aspergillus terreus = test: Antifungal activity against Aspergillus terreus ATCC MYA-3633 measured after 48 hrs by CLSI M38-A2 protocol based method; type: functional; settings: ATCC MYA-3633, 48 h
Candida albicans [6] = test: Antifungal activity against fluconazole/ITC-resistant Candida albicans ATCC 64124 measured after 48 hrs by CLSI M27-A3 protocol based method; type: functional; settings: ATCC 64124, 48 h
Aspergillus nidulans = test: Antifungal activity against Aspergillus nidulans ATCC 38163 measured after 48 hrs by CLSI M38-A2 protocol based method; type: functional; settings: ATCC 38163, 48 h
Candida albicans [7] = test: Antifungal activity against fluconazole/ITC-resistant Candida albicans ATCC 90819 measured after 48 hrs by CLSI M27-A3 protocol based method; type: functional; settings: ATCC 90819, 48 h
Enterococcus = test: Antibacterial activity against vancomycin-resistant Enterococcus; type: functional, organism-based
Nakaseomyces glabratus = test: Antifungal activity against Candida glabrata ATCC 2001 measured after 48 hrs by CLSI M27-A3 protocol based method; type: functional; settings: CBS 138, 48 h
[8] = Hemolytic activity in mouse RBC at […] after 1 hr relative to control; type: ADME, cell-based, Erythrocyte; settings: red blood cells (erythrocytes), read-out: Activity; further: tested at 0.48 µg/mL
A549 = test: Cytotoxicity against human A549 cells after 24 hrs by resazurin based assay; type: cell-based; settings: a549, 24 h
[9] = Hemolytic activity in mouse RBC at 31.3 ug/ml after 1 hr relative to control; type: ADME, cell-based, Erythrocyte; settings: red blood cells (erythrocytes), read-out: Activity
[10] = Hemolytic activity in mouse RBC at 1.95 ug/ml after 1 hr relative to control; type: ADME, cell-based, Erythrocyte; settings: red blood cells (erythrocytes), read-out: Activity
[11] = Hemolytic activity in mouse RBC at 3.9 ug/ml after 1 hr relative to control; type: ADME, cell-based, Erythrocyte; settings: red blood cells (erythrocytes), read-out: Activity
[12] = Hemolytic activity in mouse RBC at […] ug/ml after 1 hr relative to control; type: ADME, cell-based, Erythrocyte; settings: red blood cells (erythrocytes), read-out: Activity
[13] = Hemolytic activity in mouse RBC at 62.5 ug/ml after 1 hr relative to control; type: ADME, cell-based, Erythrocyte; settings: red blood cells (erythrocytes), read-out: Activity
BEAS-2B = test: Cytotoxicity against human BEAS2B cells after 24 hrs by resazurin based assay; type: cell-based
[14] = Hemolytic activity in mouse RBC at 7.8 ug/ml after 1 hr relative to control; type: ADME, cell-based, Erythrocyte; settings: red blood cells (erythrocytes), read-out: Activity

| SMILES | MIC (Pichia kudriavzevii) [µg/mL] | MIC (Candida albicans [1]) [µg/mL] | MIC (Aspergillus flavus) [µg/mL] | Activity (Staphylococcus aureus) | MIC (Candida albicans [2]) [µg/mL] | Activity (Listeria monocytogenes) | MIC (Candida albicans [3]) [µg/mL] | MIC (Candida parapsilosis) [µg/mL] | MIC (Candida albicans [4]) [µg/mL] | MIC (Candida albicans [5]) [µg/mL] | MIC (Aspergillus terreus) [µg/mL] | MIC (Candida albicans [6]) [µg/mL] | MIC (Aspergillus nidulans) [µg/mL] | MIC (Candida albicans [7]) [µg/mL] | Activity (Enterococcus) | MIC (Nakaseomyces glabratus) [µg/mL] | also measured |
| --- | --- | --- | --- | --- | --- | --- | --- | --- | --- | --- | --- | --- | --- | --- | --- | --- | --- |
| COc1ccc(N/N=C(\C)c2ccc(-c3ccc(/C(C)=N/Nc4ccc(OC)cc4)cc3)cc2)cc1 | 15.6 (≈ 32.6 µM) | 7.8 (≈ 16.3 µM) | > 31.3 | inactive | 15.6 (≈ 32.6 µM) | inactive | 15.6 (≈ 32.6 µM) | > 31.3 | 7.8 (≈ 16.3 µM) | 15.6 (≈ 32.6 µM) | > 31.3 | 15.6 (≈ 32.6 µM) | > 31.3 | 31.3 (≈ 65.4 µM) | inactive | 7.8 (≈ 16.3 µM) | – |
| CC(C)(C)N/N=C/c1ccc(-c2ccc(/C=N/NC(C)(C)C)cc2)cc1 | 31.3 (≈ 89.3 µM) | > 31.3 | > 31.3 | inactive | > 31.3 | inactive | 31.3 (≈ 89.3 µM) | > 31.3 | 31.3 (≈ 89.3 µM) | 31.3 (≈ 89.3 µM) | > 31.3 | 31.3 (≈ 89.3 µM) | 31.3 (≈ 89.3 µM) | > 31.3 | inactive | 15.6 (≈ 44.5 µM) | – |
| Brc1ccc(N/N=C/c2ccc(-c3cccc(/C=N/Nc4ccc(Br)cc4)c3)cc2)cc1 | > 31.3 | 31.3 (≈ 57.1 µM) | 31.3 (≈ 57.1 µM) | inactive | 31.3 (≈ 57.1 µM) | inactive | 31.3 (≈ 57.1 µM) | > 31.3 | 7.8 (≈ 14.2 µM) | > 31.3 | > 31.3 | 31.3 (≈ 57.1 µM) | > 31.3 | > 31.3 | inactive | 7.8 (≈ 14.2 µM) | – |
| CC(C)Oc1ccc(N/N=C/c2ccc(-c3ccc(/C=N/Nc4ccc(OC(C)C)cc4)cc3)cc2)cc1 | > 31.3 | > 31.3 | > 31.3 | inactive | > 31.3 | inactive | > 31.3 | > 31.3 | > 31.3 | > 31.3 | > 31.3 | > 31.3 | > 31.3 | > 31.3 | inactive | > 31.3 | – |
| Fc1cccc(N/N=C/c2ccc(-c3cccc(/C=N/Nc4cccc(F)c4F)c3)cc2)c1F | > 31.3 | > 31.3 | > 31.3 | inactive | > 31.3 | inactive | > 31.3 | > 31.3 | > 31.3 | > 31.3 | > 31.3 | > 31.3 | > 31.3 | > 31.3 | inactive | > 31.3 | – |
| N=C(N)N/N=C/c1ccc(-c2cccc(/C=N/NC(=N)N)c2)cc1 | 1.95 (≈ 6.05 µM) | > 31.3 | > 31.3 | – | 3.9 (≈ 12.1 µM) | – | 1.95 to 3.9 (≈ 6.05 to 12.1 µM) | 1.95 (≈ 6.05 µM) | 7.8 (≈ 24.2 µM) | 3.9 (≈ 12.1 µM) | 7.8 (≈ 24.2 µM) | 3.9 (≈ 12.1 µM) | 7.8 (≈ 24.2 µM) | > 31.3 | – | 3.9 (≈ 12.1 µM) | hemolysis at 1 h, […] [8]: 0%; CC50 (A549): 5.3 µg/mL (≈ 16.4 µM); hemolysis at 1 h, 31.3 ug/ml [9]: 3.8%; hemolysis at 1 h, 1.95 ug/ml [10]: 1.1%; hemolysis at 1 h, 3.9 ug/ml [11]: 1.2%; hemolysis at 1 h, 15.6 ug/ml ([12]; at 15.6 µg/mL): 3.8%; hemolysis at 1 h, 0.975 ug/ml [12]: 0%; hemolysis at 1 h, 62.5 ug/ml [13]: 13.1%; CC50 (BEAS-2B): 2.9 µg/mL (≈ 9 µM); hemolysis at 1 h, 7.8 ug/ml [14]: 2.3% |
| N#Cc1ccc(N/N=C/c2ccc(-c3ccc(/C=N/Nc4ccc(C#N)cc4)cc3)cc2)cc1 | > 31.3 | 31.3 (≈ 71.1 µM) | > 31.3 | inactive | > 31.3 | inactive | > 31.3 | > 31.3 | > 31.3 | > 31.3 | 31.3 (≈ 71.1 µM) | > 31.3 | > 31.3 | > 31.3 | inactive | > 31.3 | – |
| Fc1ccc(N/N=C/c2ccc(-c3ccc(/C=N/Nc4ccc(F)cc4F)cc3)cc2)c(F)c1 | > 31.3 | > 31.3 | > 31.3 | inactive | > 31.3 | inactive | 7.8 (≈ 16.9 µM) | > 31.3 | > 31.3 | > 31.3 | > 31.3 | > 31.3 | > 31.3 | 31.3 (≈ 67.7 µM) | inactive | > 31.3 | – |

Reference: ChEMBL document CHEMBL4411307, “N,N'-diaryl-bishydrazones in a biphenyl platform: Broad spectrum antifungal agents” (Eur J Med Chem, 2019)
